Test results taken from patent US20050119297A1, “Use of 5HT3 agonists for relaxing the fundus” (priority 1999, published 2005).

Experiments:
5-HT3 receptor = conditions: canine intestinal smooth muscle; read-out: affinity for the 5-HT3 receptor IC50; cited from earlier work
[1] = tested on: gastric tone in conscious dogs; assay: Gastric tone measured by an electronic barostat in conscious dogs; type: in vivo, beagle dogs; conditions: mean maximal change in gastric volume 1 hour after administration, intragastric pressure 6 mmHg
Procedure: C.1. Gastric Tone Measured by an Electronic Barostat in Conscious Dogs
Gastric tone cannot be measured by manometric methods. Therefore an electronic barostat was used. This allows the study of the physiological pattern and regulation of gastric tone in conscious dogs and the influence of test-compounds on this tone.
The barostat consists of an air injection system which is connected by a double-lumen 14-French polyvinyl tube to an ultrathin flaccid polyethylene bag (maximal volume: ±700 ml). Variations in gastric tone were measured by recording changes in the volume of air within an intragastric bag, maintained at a constant pressure. The barostat maintains a constant pressure (preselected) within a flaccid air-filled bag introduced into the stomach, changing the volume of air within the bag by an electronic feedback system.
Thus, the barostat measures gastric motor activity (contraction or relaxation) as changes in intragastric volume (decrease or increase resp.) at a constant intragastric pressure. The barostat consists of a strain gauge linked by an electronic relay to an air injection-aspiration system. Both the strain gauge and the injection system are connected by means of double-lumen polyvinyl tube to an ultrathin polyethylene bag. A dial in the barostat allows selection of the pressure level to be maintained within the intragastric bag.
Female beagle dogs, weighing 7-17 kg, were trained to stand quietly in Pavlov frames. They were implanted with a gastric cannula under general anaesthesia and aseptic precautions. After a median laparotomy, an incision was made through the gastric wall in longitudinal direction between the greater and the lesser curve, 2 cm above the nerves of Latarjet. The cannula was secured to the gastric wall by means of a double purse string suture and brought out via a stub wound at the left quadrant of the hypochondrium. Dogs were allowed a recovery period of two weeks.
At the beginning of the experiment, the cannula is opened in order to remove any gastric juice or food remnants. If necessary, the stomach is cleansed with 40 to 50 ml lukewarm water. The ultrathin bag of the barostat is positioned into the fundus of the stomach through the gastric cannula. In order to ensure easy unfolding of the intragastric bag during the experiment, a volume of 150-200 ml is injected into the bag by raising the pressure to maximally 14 mm Hg (about 1.87 kPa) very briefly. This procedure is repeated twice.
After a stabilization period of 60 minutes at an intragastric pressure of 6 mmHg (about 0.81 kPa), the test compound was administered subcutaneously, or intraduodenally. […] Table C-1 summarizes the mean maximal change in volume 1 hour after I.D. or S.C. administration of the compound (R)-N-(1-azabicyclo[2.2.2]oct-3-yl)-4,7-dihydro-7-oxothieno[3,2-b]pyridine-6-carboxamide monohydrochloride at test concentrations of 0.63 mg/kg, 0.16 mg/kg and 0.04 mg/kg.

## Cl.O=C(N[C@H]1CN2CCC1CC2)c1c[nH]c2ccsc2c1=O [(R)-N-(1-azabicyclo[2.2.2]oct-3-yl)-4,7-dihydro-7-oxothieno[3,2-b]pyridine-6-carboxamide monohydrochloride]
5-HT3 receptor
  IC50: 1.3 nM
[1]; I.D. administration, 0.04 mg/kg
  Maximum change in volume: 57 mL
[1]; I.D. administration, 0.16 mg/kg
  Maximum change in volume: 51 mL
[1]; I.D. administration, 0.63 mg/kg
  Maximum change in volume: 104 mL
[1]; S.C. administration, 0.04 mg/kg
  Maximum change in volume: 127 mL
[1]; S.C. administration, 0.16 mg/kg
  Maximum change in volume: 108 mL
[1]; S.C. administration, 0.63 mg/kg
  Maximum change in volume: 156 mL
